Assay results published in paper PMC9635472, “Design, synthesis, and biological evaluation of novel ciprofloxacin derivatives as potential anticancer agents targeting topoisomerase II enzyme” (Journal of Enzyme Inhibition and Medicinal Chemistry, 2022).

Key:
[1] = system: Human bladder cancer (T-24) cell line; experiment: MTT cell viability assay, T-24 cells; assay type: cell-based; conditions: bladder cancer cell line T-24, treatment for 24 h (table title), means of three experiments, read-out: IC50 (μM* ± SD) T-24
Description: (§1) Human bladder cancer (T-24) and human prostate carcinoma (PC-3) cell lines were obtained from American Type Culture Collection (ATCC; Manassas, VA USA). Cells were maintained in Dulbecco’s modified Eagle medium with 10% foetal bovine serum at 37 °C and 5% CO2. All the operations were carried out under strict aseptic conditions. The culture medium was removed to a centrifuge tube containing 9.0 ml complete culture medium and spanned at approximately 125 × g for 5 to 7 min. The cell layer was rinsed with 0.25% (w/v) trypsin- […] EDTA solution by which all traces of serum-containing inhibitor were removed. Trypsin EDTA solution 2.0 to 3.0 ml was added to a flask and cells were monitored under an inverted microscope until the cell layer was dispersed (usually within 5–15 min). A complete growth medium was added (6.0–8.0 ml), and cells were aspirated by gentle pipetting. The cell pellet was suspended with the recommended complete medium and dispensed into a 75 cm^2 culture flask. The culture vessel containing the complete growth medium was placed in the incubator for 24 h to at 37 °C. The cells were treated with different concentrations (0.39, 1.60, 6.25, 25, and 100 μg/ml) of each of the test compounds or doxorubicin, […], then the plates were examined under the inverted microscope and finally the MTT assay was carried out.
(§2) Anti-cancer activity of the newly synthesised compounds was evaluated in vitro against both T-24 and PC-3 cell lines according to the MTT method. Cells were seeded into 96-well plates (flat bottom) at a density of 10 000 cells/well for 24 h. The vial of MTT to be used was reconstituted with 3 ml of medium or balanced salt solution without phenol red and serum. then, a reconstituted MTT vial was added in an amount equal to 10% of the culture medium volume. Cultures were incubated for 2–4 h depending on the cell type and maximum cell density and removed from the incubator and the formazan crystals were dissolved via the addition of an amount of MTT solubilisation solution (M-8910) equal to the original culture medium volume. ROBONIK P2000 spectrophotometer at a wavelength of 570 nm was used to measure the colour intensity spectrophotometrically. The survival curve of both T-24 and PC-3 cells was obtained by plotting the percentage of surviving cells against the drug after each compound. The IC50 value for each test compound and the reference drug doxorubicin was calculated.
(§3) In this study, all the newly synthesised CP derivatives were subjected to anticancer activity evaluation against bladder (T-24) and prostate cancer (PC-3) cell lines. The compounds were evaluated for their activity using 5 doses determinations (100 μg/ml, 25 μg/ml, 6.25 μg/ml, 1.60 μg/ml, and 0.39 μg/ml). Their half-maximal inhibitory concentration (IC50) values were measured. Doxorubicin was chosen as a reference anticancer drug[65].

T-24 cells = experiment: Cell cycle analysis (propidium iodide flow cytometry), T-24 cells; assay type: cell-based, human; conditions: for phase of cell cycle arrest: T-24 cancer cells
Description: (§4) The cell cycle was done using a propidium iodide flow cytometry kit (Abcam, ab139418) according to the manufacturer’s instructions. […] After treatment, the cells were washed twice with ice-cold phosphate buffer saline, then centrifuged and fixed using ice-cold 66% (v/v) ethanol, washed with phosphate buffer saline re-suspended with 0.10 mg/ml, and stained with 200 µl propidium iodide. Cells were analysed by flow cytometry. The cell cycle distributions were calculated using cell–quest software (Bectopn Dickinson).
While the accumulation of the cells in the S phase might result from the cell cycle arrest of T-24 cells in the S phase.

human DNA Topo II = molecular target: T1, human DNA Topo II (Homo sapiens, UniProt P11388); experiment: In vitro DNA Topo II-mediated relaxation assay (supercoiled pBR322); assay type: biochemical; conditions: for IC50: means of three experiments, read-out: Topo II IC50 (µM*±SD); for inhibition at 0.1 µM / inhibition at 1 µM / inhibition at 10 µM / inhibition at 100 µM: recombinant Topo II relaxation; for inhibition at 0.1 µM: compound at 0.1 μM, read-out: Percentage of inhibition of Topo II, 0.1 μM; for inhibition at 1 µM: compound at 1 μM, read-out: Percentage of inhibition of Topo II, 1 μM; for inhibition at 10 µM: compound at 10 μM, read-out: Percentage of inhibition of Topo II, 10 μM; for inhibition at 100 µM: compound at 100 μM, read-out: Percentage of inhibition of Topo II, 100 μM
T1 construct: purchased USB Corp., USA
Description: DNA Topo II inhibitory activities of the targeted compounds were measured as follows. A mixture of 100 ng of supercoiled pBR322 plasmid DNA (Fermentas, USA) and 2 units of human DNA Topo II (USB Corp., USA) was incubated with and without the prepared compounds in the assay buffer (10 µM Tris-HCl pH 7.9) containing 50 µM NaCl, 4 µM MgCl2, 1 µM EDTA, 1 µM ATP, and 15 mg/ml bovine serum albumin for 30 min at 37 °C. The reaction in a final volume of 10 µl was terminated by the addition of 4 µl of 6 µM EDTA. DNA samples were then electrophoresed on 1% agarose gel containing 0.5 µg/ml ethidium bromide in gel and buffer at high voltage (100–250 v) until the dye front has migrated about 4–6 cm down the gel. with a running buffer of TAE Tris-acetate– EDTA (TAE). Gels were stained for 15 min in water. DNA bands were visualised by transillumination with UV light and quantitated using AlphaI-maker TM (Alpha Innotech Corporation).
Well-known Topo II inhibitor doxorubicin was used as a positive control. The reaction products of Topo II relaxation assays were analysed by electrophoretic mobility and developed in ethidium bromide in the presence of UV light. The inhibitory activities were evaluated at 4 concentrations of 100, 10, 1, and 0.1 μM for all compounds as shown in (Figure 6). Topo II inhibitory activities of the tested compounds are summarised in (Table 2).

PC-3 cells = experiment: Cell cycle analysis (propidium iodide flow cytometry), PC-3 cells; assay type: cell-based, human; conditions: for phase of cell cycle arrest: PC-3 cells at IC50 concentrations
Description: as §4
Topoisomerase inhibitors cause DNA damage which is related to G1/S and S phase arrest. Cell cycle arrest prevents the replication of damaged DNA. In PC-3 cell line compounds 6 and 8a probably arrested the cell cycle in the G1 phase by inhibition of Cyclin D–Cdk4–Cdks complex, however in the T-24 cell line, they might arrest the cell cycle in the S phase by the inhibition of both Cyclin D–Cdk4–Cdks complex and cyclins E1–E2/Cdk2, which promote G1/S transition.

[2] = system: human prostate carcinoma (PC-3) cell line; experiment: MTT cell viability assay, PC-3 cells; assay type: cell-based; conditions: prostate cancer cell line PC-3, treatment for 24 h (table title), means of three experiments, read-out: IC50 (μM* ± SD) PC-3
Description: as §1, §2, §3

T1 sequence (P11388 whole entry): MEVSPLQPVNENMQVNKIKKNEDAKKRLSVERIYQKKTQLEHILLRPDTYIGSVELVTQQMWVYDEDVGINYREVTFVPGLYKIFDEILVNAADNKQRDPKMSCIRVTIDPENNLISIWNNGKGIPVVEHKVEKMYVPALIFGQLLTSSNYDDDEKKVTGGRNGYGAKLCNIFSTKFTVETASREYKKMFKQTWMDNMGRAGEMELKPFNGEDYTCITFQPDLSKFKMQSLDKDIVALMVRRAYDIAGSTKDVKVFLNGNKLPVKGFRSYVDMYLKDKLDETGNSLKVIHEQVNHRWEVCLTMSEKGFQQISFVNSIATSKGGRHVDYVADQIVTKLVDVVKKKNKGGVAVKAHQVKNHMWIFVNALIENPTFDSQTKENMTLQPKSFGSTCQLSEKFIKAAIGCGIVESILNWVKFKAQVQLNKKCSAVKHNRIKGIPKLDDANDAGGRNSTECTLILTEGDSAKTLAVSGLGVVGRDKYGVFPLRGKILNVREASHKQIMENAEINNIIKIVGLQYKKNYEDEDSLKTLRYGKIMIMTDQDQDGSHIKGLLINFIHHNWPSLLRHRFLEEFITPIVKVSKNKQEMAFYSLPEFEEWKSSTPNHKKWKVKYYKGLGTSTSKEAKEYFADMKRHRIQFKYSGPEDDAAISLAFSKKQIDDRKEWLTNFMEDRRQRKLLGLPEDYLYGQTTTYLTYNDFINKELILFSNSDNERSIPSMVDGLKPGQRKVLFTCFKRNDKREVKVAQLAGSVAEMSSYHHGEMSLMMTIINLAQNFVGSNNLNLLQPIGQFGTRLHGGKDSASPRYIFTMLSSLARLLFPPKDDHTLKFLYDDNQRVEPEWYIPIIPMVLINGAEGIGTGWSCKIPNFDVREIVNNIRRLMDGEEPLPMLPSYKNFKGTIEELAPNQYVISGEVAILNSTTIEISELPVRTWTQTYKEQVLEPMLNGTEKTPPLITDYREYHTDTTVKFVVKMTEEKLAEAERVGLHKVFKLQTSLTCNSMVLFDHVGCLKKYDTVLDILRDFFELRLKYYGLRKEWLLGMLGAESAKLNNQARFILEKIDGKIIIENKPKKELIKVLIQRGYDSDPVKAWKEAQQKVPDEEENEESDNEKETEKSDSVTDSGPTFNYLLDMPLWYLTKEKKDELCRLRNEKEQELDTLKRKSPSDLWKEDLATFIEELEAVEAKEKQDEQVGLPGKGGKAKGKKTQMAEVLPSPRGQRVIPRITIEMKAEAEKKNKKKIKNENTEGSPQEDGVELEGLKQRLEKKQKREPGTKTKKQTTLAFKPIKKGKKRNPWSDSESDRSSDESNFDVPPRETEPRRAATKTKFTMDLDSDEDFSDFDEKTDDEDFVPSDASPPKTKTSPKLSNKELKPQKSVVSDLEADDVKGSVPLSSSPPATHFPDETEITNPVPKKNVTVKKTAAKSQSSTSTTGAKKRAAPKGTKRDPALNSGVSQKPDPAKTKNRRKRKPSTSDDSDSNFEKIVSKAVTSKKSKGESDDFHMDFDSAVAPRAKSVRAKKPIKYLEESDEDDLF

Compound	IC50 [1]	phase of cell cycle arrest (T-24 cells)	increase in the percentage of cells in the S phase compared to the control (T-24 cells; T-24 cells, at IC50, 24 h)	IC50 (human DNA Topo II)	inhibition at 0.1 µM (human DNA Topo II)	inhibition at 1 µM (human DNA Topo II)	inhibition at 10 µM (human DNA Topo II)	inhibition at 100 µM (human DNA Topo II)	phase of cell cycle arrest (PC-3 cells)	decrease in the percentage of cells at the G2/M phase (PC-3 cells; PC-3 cells, at IC50, 24 h)	increase in the percentage of cells at the G1 phase compared to the control (PC-3 cells; PC-3 cells, at IC50, 24 h)	IC50 [2]	increase in the percentage of cells at pre-G1 compared to the control (T-24 cells; T-24 cells, at IC50, 24 h)
O=C1CC(=O)N(C(=O)CN2CCN(c3cc4c(cc3F)c(=O)c(C(=O)O)cn4C3CC3)CC2)N1 [Compound 6, 1-cyclopropyl-7-(4-(2-(3,5-dioxopyrazolidin-1-yl)-2-oxoethyl)piperazin-1-yl)-6-fluoro-4-oxo-1,4-dihydroquinoline-3-carboxylic acid]	5.68 ± 0.3 µM	S phase	1.4 fold	0.92 ± 0.05 µM	28%	51.9%	76.3%	87.4%	G1-phase cell cycle arrest	1.5 fold	1.16 fold	92.2 ± 4.69 µM	
O=C(CN1CCN(c2cc3c(cc2F)c(=O)c(C(=O)O)cn3C2CC2)CC1)NN=C1C(=O)Nc2ccccc21 [Compound 8a, 1-Cyclopropyl-6-fluoro-4-oxo-7-(4-(2-oxo-2-(2-(2-oxoindolin-3-ylidene)hydrazinyl)ethyl)piperazin-1-yl)-1,4-dihydroquinoline-3-carboxylic acid]	3.36 ± 0.19 µM	S phase	1.11 fold	0.74 ± 0.04 µM	32.5%	50.3%	77.4%	91.6%	G1-phase cell cycle arrest		1.27 fold	11 ± 0.56 µM	20.1 fold
